From patent US20050181072A1, “Use of essential oils for combating gi tract infection by helicobacter-like organisms” (priority 2000, published 2005)
Values after ≈ are worked out from the molar mass of the structure shown. Read-outs that look alike come from different tables or passages of the source.

System: H. pylori
Assay: Liquid medium assay, MBC determination (CFU count after subculture)
Format: cell-based
Details: Helicobacter pylori
Description: The parameters used to define the inhibitory capacity of a given substance are: 1) the minimal inhibitory concentration (MIC) which is the lowest concentration at which bacterial growth is prevented, and 2) the minimal […] concentration (MBC) which is the lowest concentration at which bacteria are killed (no growth in subculture). In the light of this: MIC≦MBC. ?
b) Liquid medium assay (used for MBC determination)
MBC determination in H. pylori was carried out by placing bacteria and different dilutions of EO at pH 7.4 together for 1 h or 24 h, plating (subculture in solid medium) for 3-5 days, and counting colony forming units (CFU). The results were then plotted as H. pylori (log10CFU/ml) vs concentration of EO (g/l). It is clear from the plots (shown in FIGS. 1 and 2) that EOs already display a marked effect on H. pylori viability after 1 h incubation and that the selected EOs are remarkably potent inhibitors of H. pylori in vitro.

[1] = pure compounds, Table 2, pH 7.4, read-out: Liquid medium MBC
[2] = pH 7.4, read-out: Liquid medium MBC

Compound: C=C1CCC2CC1C2(C)C (stereo not drawn) [Beta-pinene]
- MBC [1]: 100 µg/mL (≈ 734 µM)

Compound: CC1CCC(C(C)C)C(O)C1 (centres unmarked) [Menthol]
- MBC [1]: > 100 µg/mL

Compound: CC(C)=CCC/C(C)=C/CO [Geraniol]
- MBC [1]: 100 µg/mL (≈ 648 µM)

Compound: C=CCc1ccc(O)c(OC)c1 [Eugenol]
- MBC [1]: 100 µg/mL (≈ 609 µM)

Compound: CC=Cc1ccc(O)c(OC)c1 [Isoeugenol]
- MBC [1]: 40 µg/mL (≈ 244 µM)

Compound: Cc1ccc(C(C)C)c(O)c1 [Thymol]
- MBC [1]: 100 µg/mL (≈ 666 µM)

Compound: CC(=O)OC/C=C(\C)CCC=C(C)C [Geranyl acetate]
- MBC [1]: > 100 µg/mL

Compound: Cc1ccc(C(C)C)cc1O [Carvacrol]
- MBC [2]: 40 µg/mL (≈ 266 µM)

Compound: CC(C)=CCC/C(C)=C\CO [Nerol]
- MBC [1]: 40 µg/mL (≈ 259 µM)

Compound: CC(C)=CCCC(C)CC=O (centres unmarked) [Citronellal]
- MBC [1]: 100 µg/mL (≈ 648 µM)

Compound: C=CC(C)(O)CCC=C(C)C (centres unmarked) [Linalool]
- MBC [1]: 100 µg/mL (≈ 648 µM)

Compound: CC12CCC(CC1)C(C)(C)O2 [Eukalyptol]
- MBC [1]: > 100 µg/mL

Compound: CC(C)=CCCC(C)=CCCC(C)=CCO [Farnesol]
- MBC [1]: 40 µg/mL (≈ 180 µM)

Compound: CC1=CCC2CC1C2(C)C (stereo not drawn) [Alpha-pinene]
- MBC [1]: 100 µg/mL (≈ 734 µM)

Compound: CCC/C=C/C=O [Trans-2-hexenal]
- MBC [1]: 40 µg/mL (≈ 408 µM)

Compound: CC(C)=CCCC(C)=CC=O [Citral]
- MBC [1]: 40 µg/mL (≈ 263 µM)

Compound: C=CCc1ccc(OC)cc1 [Estragole]
- MBC [2]: 100 µg/mL (≈ 675 µM)
